Experimental data reported in patent publication US20160122320A1, “USEFUL COMBINATIONS OF MONOBACTAM ANTIBIOTICS WITH BETA-LACTAMASE INHIBITORS” (Basilea Pharmaceutica AG, priority 2005, published 2016).
Where a name gives a salt, the structure may show the parent alone.

How the values were obtained:
Experiment in all cases: MIC, NCCLS broth microdilution
Assay type in all cases: cell-based
Acinetobacter sp. J2 = details: for MIC of antibiotic at fixed inhibitor concentration (4 mg/L): Acinetobacter sp. J2, MIC of antibiotic compound 1 with the labelled bridged monobactam of formula II and clavulanate, 4 mg/L each; for MIC of antibiotic / MIC of antibiotic at fixed inhibitor concentration of 4 mg/L: Acinetobacter baumannii J2; for MIC of antibiotic: antibiotic alone, no inhibitor
[1] = tested on: Pseudomonas aeruginosa MK1184; details: for MIC of antibiotic at fixed inhibitor concentration (4 mg/L): MIC of antibiotic compound 1 with the labelled bridged monobactam of formula II and clavulanate, 4 mg/L each; for MIC of antibiotic: antibiotic alone, no inhibitor
[2] = tested on: Pseudomonas aeruginosa 1973E; details: for MIC of antibiotic at fixed inhibitor concentration (4 mg/L): MIC of antibiotic compound 1 with the labelled bridged monobactam of formula II and clavulanate, 4 mg/L each; for MIC of antibiotic: antibiotic alone, no inhibitor
Method: Antimicrobial activity of the compounds and of their combinations was determined against a selection of organisms according to the standard procedures described by the National Committee for Clinical Laboratory Standards (National Committee for Clinical Laboratory. Standards (2000). Methods for Dilution Antimicrobial Susceptibility Tests for Bacteria That Grow Aerobically-Fifth Edition: Approved Standard M7-A5. NCCLS, Wayne, Pa., USA).
In all cases the final concentration of DMSO incubated with the bacteria is less than or equal to 1%. […] Plates were incubated overnight at an appropriate temperature (30° C. or 37° C.) and optical densities assessed by eye. The MIC value is defined as the lowest compound concentration completely inhibiting visible growth of the test organism. When combinations between compounds of formula I with compounds of formula II and are evaluated the compounds of formula I are tested in dilution series as described above while the compounds of formula II and III-XIII were present in all wells at a constant concentration of 4 μg/mL each.

Enterobacter cloacae P99 = details: for MIC of antibiotic at fixed inhibitor concentration (4 mg/L): MIC of antibiotic compound 1 with the labelled bridged monobactam of formula II and clavulanate, 4 mg/L each; for MIC of antibiotic: antibiotic alone, no inhibitor
[3] = tested on: Klebsiella pneumoniae CF104; details: for MIC of antibiotic at fixed inhibitor concentration (4 mg/L): MIC of antibiotic compound 1 with the labelled bridged monobactam of formula II and clavulanate, 4 mg/L each; for MIC of antibiotic: antibiotic alone, no inhibitor
Serratia marcescens S6 = details: for MIC of antibiotic at fixed inhibitor concentration (4 mg/L): MIC of antibiotic compound 1 with the labelled bridged monobactam of formula II and clavulanate, 4 mg/L each; for MIC of antibiotic: antibiotic alone, no inhibitor
[4] = tested on: Stenotrophomonas malthophilia 1AC736; details: for MIC of antibiotic at fixed inhibitor concentration (4 mg/L): Stenotrophomonas malthophilia 1AC736, MIC of antibiotic compound 1 with the labelled bridged monobactam of formula II and clavulanate, 4 mg/L each; for MIC of antibiotic / MIC of antibiotic at fixed inhibitor concentration of 4 mg/L: Stenotrophomonas maltophilia 1AC736; for MIC of antibiotic: antibiotic alone, no inhibitor
[5] = with clavulanate (clavulanic acid)

NC(=O)c1ccc[n+](CC(=O)N2CC[C@@H]3[C@H]2C(=O)N3S(=O)(=O)[O-])c1 [Compound 102, (1S,5R)-2-[2-β-carbamoylpyridinium)acetyl]-7-oxo-2,6-diazabicyclo[3.2.0]heptane-6-sulfonate, inner salt]
MIC of antibiotic at fixed inhibitor concentration (4 mg/L) (Acinetobacter sp. J2): 4 µg/mL | MIC of antibiotic at fixed inhibitor concentration (4 mg/L) [1]: 4 µg/mL | MIC of antibiotic at fixed inhibitor concentration (4 mg/L) [2]: 2 µg/mL | MIC of antibiotic at fixed inhibitor concentration (4 mg/L) (Enterobacter cloacae P99): 4 µg/mL | MIC of antibiotic at fixed inhibitor concentration (4 mg/L) [3]: 1 µg/mL | MIC of antibiotic at fixed inhibitor concentration (4 mg/L) (Serratia marcescens S6): 0.25 µg/mL | MIC of antibiotic at fixed inhibitor concentration (4 mg/L) [4]: 0.125 µg/mL

Cc1ccc(C(N)=O)c[n+]1CC(=O)N1CC[C@@H]2[C@H]1C(=O)N2S(=O)(=O)[O-] [Compound 111, (1S,5R)-2-[2-(3-carbamoyl-6-methylpyridinium)acetyl]-7-oxo-2,6-diazabicyclo[3.2.0]heptane-6-sulfonate, inner salt]
MIC of antibiotic at fixed inhibitor concentration (4 mg/L) (Acinetobacter sp. J2): 4 µg/mL | MIC of antibiotic at fixed inhibitor concentration (4 mg/L) [1]: 8 µg/mL | MIC of antibiotic at fixed inhibitor concentration (4 mg/L) [2]: 4 µg/mL | MIC of antibiotic at fixed inhibitor concentration (4 mg/L) (Enterobacter cloacae P99): 4 µg/mL | MIC of antibiotic at fixed inhibitor concentration (4 mg/L) [3]: <0.06 µg/mL | MIC of antibiotic at fixed inhibitor concentration (4 mg/L) (Serratia marcescens S6): 0.25 µg/mL | MIC of antibiotic at fixed inhibitor concentration (4 mg/L) [4]: 0.125 µg/mL

CN(C)c1cc[n+](CC(=O)N2CC[C@@H]3[C@H]2C(=O)N3S(=O)(=O)[O-])cc1 [Compound 112, (1S,5R)-2-{2-[4-(dimethylamino)pyridinium]acetyl}-7-oxo-2,6-diazabicyclo[3.2.0]heptane-6-sulfonate, inner salt]
MIC of antibiotic at fixed inhibitor concentration (4 mg/L) (Acinetobacter sp. J2): 16 µg/mL | MIC of antibiotic at fixed inhibitor concentration (4 mg/L) [1]: >32 µg/mL | MIC of antibiotic at fixed inhibitor concentration (4 mg/L) [2]: 8 µg/mL | MIC of antibiotic at fixed inhibitor concentration (4 mg/L) (Enterobacter cloacae P99): >32 µg/mL | MIC of antibiotic at fixed inhibitor concentration (4 mg/L) [3]: <=0.06 mg/L | MIC of antibiotic at fixed inhibitor concentration (4 mg/L) (Serratia marcescens S6): 0.5 µg/mL | MIC of antibiotic at fixed inhibitor concentration (4 mg/L) [4]: 0.125 µg/mL

CC1C(NC(=O)C(=NOCc2cc(=O)c(O)cn2O)c2csc(NC=O)n2)C(=O)N1S(=O)(=O)O (stereo not shown) [Compound 28]
MIC of antibiotic (Acinetobacter sp. J2): >32 µg/mL | MIC of antibiotic at fixed inhibitor concentration of 4 mg/L (Acinetobacter sp. J2; with 102 and clavulanate): >32 µg/mL | MIC of antibiotic [1]: >32 µg/mL | MIC of antibiotic at fixed inhibitor concentration of 4 mg/L ([1]; with 102 and clavulanate): 32 µg/mL | MIC of antibiotic [2]: >32 µg/mL | MIC of antibiotic at fixed inhibitor concentration of 4 mg/L ([2]; with 102 and clavulanate): 16 µg/mL | MIC of antibiotic (Enterobacter cloacae P99): >32 µg/mL | MIC of antibiotic at fixed inhibitor concentration of 4 mg/L (Enterobacter cloacae P99; with 102 and clavulanate): >32 µg/mL | MIC of antibiotic [3]: >32 µg/mL | MIC of antibiotic at fixed inhibitor concentration of 4 mg/L ([3]; with 102 and clavulanate): 0.5 µg/mL | MIC of antibiotic (Serratia marcescens S6): 8 µg/mL | MIC of antibiotic at fixed inhibitor concentration of 4 mg/L (Serratia marcescens S6; with 102 and clavulanate): 1 µg/mL | MIC of antibiotic [4]: 8 µg/mL | MIC of antibiotic at fixed inhibitor concentration of 4 mg/L ([4]; with 102 and clavulanate): 1 µg/mL

COc1ccc(NC(=O)N2CC[C@@H]3[C@H]2C(=O)N3S(=O)(=O)[O-])cc1.[Na+] [Compound 304]
MIC of antibiotic at fixed inhibitor concentration (4 mg/L) (Acinetobacter sp. J2): >32 µg/mL | MIC of antibiotic at fixed inhibitor concentration (4 mg/L) [1]: >32 µg/mL | MIC of antibiotic at fixed inhibitor concentration (4 mg/L) [2]: 4 µg/mL | MIC of antibiotic at fixed inhibitor concentration (4 mg/L) (Enterobacter cloacae P99): 32 µg/mL | MIC of antibiotic at fixed inhibitor concentration (4 mg/L) [3]: 1 µg/mL | MIC of antibiotic at fixed inhibitor concentration (4 mg/L) (Serratia marcescens S6): 0.25 µg/mL | MIC of antibiotic at fixed inhibitor concentration (4 mg/L) [4]: 0.125 µg/mL

CC1(C)S[C@@H]2[C@H](NC(=O)[C@H](N)c3ccc(O)cc3)C(=O)N2[C@H]1C(=O)O [Amoxicillin, amoxicillin, reference compound]
MIC of antibiotic at fixed inhibitor concentration of 4 mg/L (Acinetobacter sp. J2; [5]): >32 µg/mL | MIC of antibiotic at fixed inhibitor concentration of 4 mg/L [1, 5]: >32 µg/mL | MIC of antibiotic at fixed inhibitor concentration of 4 mg/L [2, 5]: >32 µg/mL | MIC of antibiotic at fixed inhibitor concentration of 4 mg/L (Enterobacter cloacae P99; [5]): >32 µg/mL | MIC of antibiotic at fixed inhibitor concentration of 4 mg/L [3, 5]: 32 µg/mL | MIC of antibiotic at fixed inhibitor concentration of 4 mg/L (Serratia marcescens S6; [5]): >32 µg/mL | MIC of antibiotic at fixed inhibitor concentration of 4 mg/L [4, 5]: >32 µg/mL

O=C(NCc1cccs1)N1CC[C@@H]2[C@H]1C(=O)N2S(=O)(=O)[O-].[Na+] [Compound 314]
MIC of antibiotic at fixed inhibitor concentration (4 mg/L) (Acinetobacter sp. J2): 4 µg/mL | MIC of antibiotic at fixed inhibitor concentration (4 mg/L) [1]: >32 µg/mL | MIC of antibiotic at fixed inhibitor concentration (4 mg/L) [2]: 4 µg/mL | MIC of antibiotic at fixed inhibitor concentration (4 mg/L) (Enterobacter cloacae P99): 32 µg/mL | MIC of antibiotic at fixed inhibitor concentration (4 mg/L) [3]: 1 µg/mL | MIC of antibiotic at fixed inhibitor concentration (4 mg/L) (Serratia marcescens S6): 0.25 µg/mL | MIC of antibiotic at fixed inhibitor concentration (4 mg/L) [4]: 0.125 µg/mL

NC(=O)OCC1C(NC(=O)C(=NOCc2cc(=O)c(O)cn2O)c2nc(N)sc2Cl)C(=O)N1OS(=O)(=O)O (stereo not shown) [Compound 47]
MIC of antibiotic (Acinetobacter sp. J2): >32 µg/mL | MIC of antibiotic at fixed inhibitor concentration of 4 mg/L (Acinetobacter sp. J2; with 102 and clavulanate): >32 µg/mL | MIC of antibiotic at fixed inhibitor concentration of 4 mg/L (Acinetobacter sp. J2; with 324 and clavulanate): >32 µg/mL | MIC of antibiotic [1]: 4 µg/mL | MIC of antibiotic at fixed inhibitor concentration of 4 mg/L ([1]; with 102 and clavulanate): 2 µg/mL | MIC of antibiotic at fixed inhibitor concentration of 4 mg/L ([1]; with 324 and clavulanate): 4 µg/mL | MIC of antibiotic [2]: 8 µg/mL | MIC of antibiotic at fixed inhibitor concentration of 4 mg/L ([2]; with 102 and clavulanate): 4 µg/mL | MIC of antibiotic at fixed inhibitor concentration of 4 mg/L ([2]; with 324 and clavulanate): 8 µg/mL | MIC of antibiotic (Enterobacter cloacae P99): >32 µg/mL | MIC of antibiotic at fixed inhibitor concentration of 4 mg/L (Enterobacter cloacae P99; with 102 and clavulanate): 16 µg/mL | MIC of antibiotic at fixed inhibitor concentration of 4 mg/L (Enterobacter cloacae P99; with 324 and clavulanate): 32 µg/mL | MIC of antibiotic [3]: >32 µg/mL | MIC of antibiotic at fixed inhibitor concentration of 4 mg/L ([3]; with 102 and clavulanate): 4 µg/mL | MIC of antibiotic at fixed inhibitor concentration of 4 mg/L ([3]; with 324 and clavulanate): 2 µg/mL | MIC of antibiotic (Serratia marcescens S6): 2 µg/mL | MIC of antibiotic at fixed inhibitor concentration of 4 mg/L (Serratia marcescens S6; with 102 and clavulanate): 2 µg/mL | MIC of antibiotic at fixed inhibitor concentration of 4 mg/L (Serratia marcescens S6; with 324 and clavulanate): 2 µg/mL | MIC of antibiotic [4]: 1 µg/mL | MIC of antibiotic at fixed inhibitor concentration of 4 mg/L ([4]; with 102 and clavulanate): 1 µg/mL | MIC of antibiotic at fixed inhibitor concentration of 4 mg/L ([4]; with 324 and clavulanate): 1 µg/mL

O=C(Nc1ccc(O)cc1)N1CC[C@@H]2[C@H]1C(=O)N2S(=O)(=O)[O-].[Na+] [Compound 316]
MIC of antibiotic at fixed inhibitor concentration (4 mg/L) (Acinetobacter sp. J2): 16 µg/mL | MIC of antibiotic at fixed inhibitor concentration (4 mg/L) [1]: 32 µg/mL | MIC of antibiotic at fixed inhibitor concentration (4 mg/L) [2]: 4 µg/mL | MIC of antibiotic at fixed inhibitor concentration (4 mg/L) (Enterobacter cloacae P99): 8 µg/mL | MIC of antibiotic at fixed inhibitor concentration (4 mg/L) [3]: 0.5 µg/mL | MIC of antibiotic at fixed inhibitor concentration (4 mg/L) (Serratia marcescens S6): 0.25 µg/mL | MIC of antibiotic at fixed inhibitor concentration (4 mg/L) [4]: 0.125 µg/mL

NC(=O)c1cc[n+](CC(=O)N2CC[C@@H]3[C@H]2C(=O)N3S(=O)(=O)[O-])cc1 [Compound 105, (1S,5R)-2-[2-(4-carbamoylpyridinium)acetyl]-7-oxo-2,6-diazabicyclo[3.2.0]heptane-6-sulfonate, inner salt]
MIC of antibiotic at fixed inhibitor concentration (4 mg/L) (Acinetobacter sp. J2): 8 µg/mL | MIC of antibiotic at fixed inhibitor concentration (4 mg/L) [1]: 16 µg/mL | MIC of antibiotic at fixed inhibitor concentration (4 mg/L) [2]: 8 µg/mL | MIC of antibiotic at fixed inhibitor concentration (4 mg/L) (Enterobacter cloacae P99): 32 µg/mL | MIC of antibiotic at fixed inhibitor concentration (4 mg/L) [3]: 0.5 µg/mL | MIC of antibiotic at fixed inhibitor concentration (4 mg/L) (Serratia marcescens S6): 0.125 µg/mL | MIC of antibiotic at fixed inhibitor concentration (4 mg/L) [4]: 0.125 µg/mL
